Measured values as given in patent US8394758B2, “Tumor-targeting peptides and uses thereof” (Academia Sinica, priority 2008, dated 2013).

Columns and labels:
[1] = system: lung tumor xenografts, tumor neovasculature; experiment: Immuno-staining of phage (anti-M13) and blood vessels (anti-CD31) in lung tumor xenografts and normal organs; assay type: in vivo, SCID mice
Source text: The accumulation of the phage clones in tumor mass was further examined by an immuno-staining assay, using an anti-M13 phage monoclonal antibody (Amersham Biosciences, Uppsala, Sweden). Briefly, after injection of the phage clones, normal organ samples and tumor samples were obtained, each divided into two parts. Bound phage particles were released from one part of the samples and titered using bacterium ER2738. The other part of each of the samples was embedded in Optimal Cutting Temperature (OCT, Tissue-Tek, NL, USA). The OCT-embedded samples (frozen) were sectioned (5 micron) and transferred to cold PBS. The sections were fixed with acetone-methanol (1:1) on slides, washed with PBS, and immersed in a blocking buffer (1% BSA in PBS) for 1 h. Then, the slides were incubated with rat anti-mouse CD31 antibody (an antibody recognizing blood vessels; BD Pharmingen, MA, USA.) and rabbit anti-rat Ig antibody (Stressgen, Canada), and immersed in Rhodamine labeled goat anti-rabbit Ig antibody (Jackson ImmunoResearch, PA, USA). The slides were further incubated with mouse anti-M13 phage monoclonal antibody (Amersham Biosciences, Uppsala, Sweden), then with FITC-labeled goat anti-mouse Ig antibody (Jackson ImmunoResearch, PA, USA), and finally immersed in a solution containing Hoechst 33258 (Molecular Probe, OR, USA). After being washed and mounted with a mounting medium (Vector, Calif., USA), the slides were examined under a Leica Confocal Microscope (TCS-SP5-AOBS). Images of the slides were processed with the Leica Application Suite Advanced Fluorescence software.

[2] = system: H460 cells (lung cancer) xenografts; experiment: In vivo homing of phage clones to lung cancer xenografts, alone or with synthetic peptide (phage titer); parameters: species or system SCID mice; details: 100 μg synthetic peptide co-injected
Experimental: Eight minutes after the injection, the phage-treated SCID mice were perfused with 50 ml PBS to wash away phage particles unbound to tissues. Normal organs (e.g., lung, heart, brain) and tumor mass were removed from the mice, weighed, washed with PBS, and homogenized to release tissue-bound phage particles, if any. The released phage particles were titered using bacterium ER2738 (New England BioLabs, MA, USA) grown on IPTG-X-gal-containing agar plates, and amplified in the same bacterium following the manufacturer's protocol.
H460 cells (a lung cancer cell line) were injected subcutaneously (s.c.) into the dorsolateral flanks of SCID mice (4-6 weeks of age) to form lung cancer xenografts. Each of phage clones IVO 2, IVO 8, and IVO 24, displaying peptide SVSVGMKPSPRP (SEQ ID NO:1), SNPFSKPYGLTV (SEQ ID NO:3), and YPHYSLPGSSTL (SEQ ID NO:5), respectively, was injected (i.v.) into the tail veins of the mice bearing the xenografts (˜100 mm^3), either alone or with 100 μg synthetic peptides SVSVGMKPSPRP (SEQ ID NO:1), SNPFSKPYGLTV (SEQ ID NO:3), or YPHYSLPGSSTL (SEQ ID NO:5). Normal organs and tumor mass were removed from these mice and processed as described in Example 1 above. The phage titers in the normal organs and tumor mass were determined following the procedure also described in Example 1.

[3] = system: Non-small cell lung cancer xenografts; experiment: Doxorubicin levels in tumor tissue and tumor cell nuclei (spectrofluorometry); assay type: in vivo, SCID mice; details: 2 mg/kg doxorubicin
Experimental: Non-small cell lung cancer xenografts (˜300 mm^3) were induced in SCID mice following the method described in Example 2 above. These mice were treated with PIVO-2-LD, PIVO-8-LD, PIVO-24-LD, LD, and FD at a doxorubicin dose of 2 mg/kg and sacrificed 1 h, 4 h, or 24 h later. Blood samples were collected from the mice via submaxillary punctures and plasma samples were prepared therefrom. In addition, xenografts and normal organs were removed, part of them being homogenized to isolate cell nuclei. Doxorubicin was extracted either from the tumor tissue or from the nuclei following the method described in Laginha et al., Clin. Cancer Res. 11:6944-6949, 2005 and Mayer et al., J. Pharmacol. Exp. Ther. 280:1406-1414, 1997. The amount of doxorubicin was determined by spectrofluorometry at λex 485/20 nm and λcm 645/40 nm (Synergy HT Multi-Detection Microplate Reader, BioTek Instruments, Winooski, Vt. 05404 USA). Based on the amounts of doxorubicin in tumor tissues at different time points, concentration-time curves of doxorubicin were prepared and the areas under the curves from 0-48 hours (AUC0-48 hours) were determined.

[4] = system: tumor xenografts; experiment: Histopathology of tumor tissues by H&E staining; assay type: in vivo, SCID mice; details: doxorubicin 1 mg/kg twice a week for four weeks
Experimental: Mouse body weights and tumor lengths/widths were measured twice a week with calipers. The volume of a tumor was calculated using the formula: length×(width)×0.52.

| Nucleus (AUC0-48 h) doxorubicin ([3]; tumor cell nuclei (bioavailable doxorubicin)) [µg·h/g] | Tumor (AUC0-48 h) doxorubicin ([3]; tumor tissue) [µg·h/g] | Compound | blocking by synthetic peptide of binding of the corresponding phage clone to lung tumor tissues [1] | inhibition by synthetic peptide of accumulation in tumor mass of the phage clone displaying the same peptide [2] | necrotic/apoptotic area (combined) in tumor xenografts [4] |
| --- | --- | --- | --- | --- | --- |
| – | – | YPHYSLPGSSTL (Tumor-Targeting Peptide) | blocked binding | inhibited accumulation | – |
| 3.68 | 10.23 | COc1cccc2c1C(=O)c1c(O)c3c(c(O)c1C2=O)C[C@@](O)(C(=O)CO)C[C@@H]3O[C@H]1C[C@H](N)[C@H](O)[C@H](C)O1 [FD, doxorubicin] | – | – | only a moderate necrotic/apoptotic area |
| – | – | SNPFSKPYGLTV (Tumor-Targeting Peptide) | blocked binding | inhibited accumulation | – |
| – | – | SVSVGMKPSPRP (Tumor-Targeting Peptide) | blocked binding | inhibited accumulation of phage clone IVO 2 | – |
